This note sets out measurements from PubChem BioAssay AID1671209.

As usually defined, the IC50 is the concentration at which inhibition is half-maximal.

The experiment concerns the target Dual specificity tyrosine-phosphorylation-regulated kinase 4 (Homo sapiens) (UniProt Q9NR20). Kind of experiment: DYRK4 kinase inhibitors, dose response, biochemical, Z'-LYTE, FRET, protease-coupled, direct format (AID 1671209). As to conditions: Z'-LYTE FRET kinase activity, recombinant DYRK4.

Dual specificity tyrosine-phosphorylation-regulated kinase 4 (Homo sapiens), sequence (Q9NR20 whole entry, looked up): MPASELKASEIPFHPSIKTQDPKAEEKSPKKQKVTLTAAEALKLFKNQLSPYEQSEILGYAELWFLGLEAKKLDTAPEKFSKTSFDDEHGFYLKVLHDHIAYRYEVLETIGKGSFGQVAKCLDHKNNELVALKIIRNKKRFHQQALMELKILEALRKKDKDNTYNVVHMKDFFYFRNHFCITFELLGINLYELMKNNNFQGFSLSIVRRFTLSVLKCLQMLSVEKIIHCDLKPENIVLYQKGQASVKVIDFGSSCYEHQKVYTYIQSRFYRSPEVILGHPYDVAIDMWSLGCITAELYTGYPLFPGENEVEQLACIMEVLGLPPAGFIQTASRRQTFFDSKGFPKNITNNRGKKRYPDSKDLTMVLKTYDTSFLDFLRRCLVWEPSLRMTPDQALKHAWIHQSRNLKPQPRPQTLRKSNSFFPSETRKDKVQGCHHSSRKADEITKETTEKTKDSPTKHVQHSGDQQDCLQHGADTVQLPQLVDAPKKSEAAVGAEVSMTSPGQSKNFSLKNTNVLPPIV

As for `Brc1c(Br)c(Br)c2n[nH]nc2c1Br`, the IC50 is 12.9 µM.
